# Reference: ChEMBL document CHEMBL4483862, “Open-source discovery of chemical leads for next-generation chemoprotective antimalarials” (2018)
# Test system: Plasmodium berghei
# Test: Luciferase/luciferin-expressing antifolate-resistant parasites were used to infect a culture of HepG2 cells that were pre-incubated with compounds. Infected hepatocytes emit light due to the luciferase reaction. Assay results are presented as the percent inhibition of light emission compared to control. […]
# Type: functional
# Details: sporozoite; for IC90: read-out: LUCIFERASE INFECTION ASSAY - IC90
# [1] = read-out: LUCIFERASE INFECTION ASSAY - IC50
Structure (SMILES),IC90 [µM],further results
Cn1ncc(C#N)c1NC(=O)c1cccc(Oc2ccccc2)c1,8.69,"IC50 (HEPG2TOX_HILL_SLOPE 1.03, HEPG2TOX_R_SQUARED 0.84, PBLUC_HILL_SLOPE 1.64, 1.43, PBLUC_R_SQUARED 0.588, 0.656, read-out: LUCIFERASE INFECTION ASSAY - IC50): 2.85 µM"
O=C(C1COc2ccccc2C1)N(Cc1ccccc1)c1ccccn1 (stereo not drawn),> 10,"IC50 (HEPG2TOX_HILL_SLOPE 0.0154, HEPG2TOX_R_SQUARED 0.0147, read-out: LUCIFERASE INFECTION ASSAY - IC50): > 10 µM"
CC(N)C(=O)NCC(F)(F)F (stereo not drawn),> 10,IC50 [1]: > 10 µM
Cn1nc(C(C)(C)C)cc1C(=O)Nc1ccc2nc(-c3cccs3)nn2c1,> 10,IC50 [1]: > 10 µM
Cc1ccc(S(=O)(=O)Nc2ccc(C(=O)/C=C/c3ccc(C(C)(C)C)cc3)cc2)cc1,> 10,IC50 [1]: > 10 µM
Cc1ccc(-n2ncc(Cl)c(Cl)c2=O)cc1,> 12.9,"IC50 (FFLUC_HILL_SLOPE 14.5, FFLUC_R_SQUARED 0.489, HEPG2TOX_HILL_SLOPE 2.71, HEPG2TOX_R_SQUARED 0.789, PBLUC_HILL_SLOPE 3.3, PBLUC_R_SQUARED 0.431, read-out: LUCIFERASE INFECTION ASSAY - IC50): 8.02 µM"
O=C(Nc1nc2ccccn2c1C(=O)NC1CCCC1)c1ccccc1,7.5,"IC50 (HEPG2TOX_HILL_SLOPE 3.22, HEPG2TOX_R_SQUARED 0.898, PBLUC_HILL_SLOPE 4.41, PBLUC_R_SQUARED 0.561, read-out: LUCIFERASE INFECTION ASSAY - IC50): 4.56 µM"
Fc1ccc2c(c1)/C(=N\Nc1nc3ccccc3[nH]1)CCS2,> 10,"IC50 (HEPG2TOX_HILL_SLOPE 6.62, HEPG2TOX_R_SQUARED 0.538, PBLUC_HILL_SLOPE 9.53, PBLUC_R_SQUARED 0.0234, read-out: LUCIFERASE INFECTION ASSAY - IC50): 8.49 µM"
CC(C)c1cc(=O)oc2cc(OS(=O)(=O)c3cc(C(N)=O)n(C)c3)ccc12,> 10,IC50 [1]: > 10 µM
NC(=NNC(=S)Nc1ccccc1C(F)(F)F)c1ccccn1,2.78,"IC50 (FFLUC_HILL_SLOPE 21.9, FFLUC_R_SQUARED 0.597, HEPG2TOX_HILL_SLOPE 0.969, HEPG2TOX_R_SQUARED 0.909, PBLUC_HILL_SLOPE 1.81, PBLUC_R_SQUARED 0.836, read-out: LUCIFERASE INFECTION ASSAY - IC50): 0.826 µM"
O=C(CSc1ncnc2sc(-c3ccccc3)cc12)NCc1ccc(F)cc1,> 10,"IC50 (HEPG2TOX_HILL_SLOPE 9.03, HEPG2TOX_R_SQUARED 0.325, PBLUC_HILL_SLOPE 19.9, PBLUC_R_SQUARED 0.0271, read-out: LUCIFERASE INFECTION ASSAY - IC50): 9.7 µM"
CC(=O)Nc1cccc(-c2cn3c(-c4cccs4)cnc3cn2)c1,> 9.87,"IC50 (HEPG2TOX_HILL_SLOPE 3.98, HEPG2TOX_R_SQUARED 0.532, PBLUC_HILL_SLOPE 3.16, PBLUC_R_SQUARED 0.221, read-out: LUCIFERASE INFECTION ASSAY - IC50): 5.11 µM"
COc1ccccc1-c1cc2c(Nc3ccc(OC(F)(F)F)cc3)nccc2n1C,8.42,"IC50 (FFLUC_HILL_SLOPE 12.5, FFLUC_R_SQUARED 0.343, HEPG2TOX_HILL_SLOPE 2.16, HEPG2TOX_R_SQUARED 0.708, PBLUC_HILL_SLOPE 2.92, PBLUC_R_SQUARED 0.46, read-out: LUCIFERASE INFECTION ASSAY - IC50): 3.97 µM"
COc1ccc(N/N=C2\C=CC(=O)c3ncccc32)cc1,> 10,"IC50 (HEPG2TOX_HILL_SLOPE 8.38, HEPG2TOX_R_SQUARED 0.289, PBLUC_HILL_SLOPE 16, PBLUC_R_SQUARED 0.427, read-out: LUCIFERASE INFECTION ASSAY - IC50): 9.1 µM"
Cn1ccc2cc(-c3cn4c(-c5cccc(Cl)c5)cnc4cn3)ccc21,2.86,"IC50 (HEPG2TOX_HILL_SLOPE 1.09, HEPG2TOX_R_SQUARED 0.945, PBLUC_HILL_SLOPE 1.73, PBLUC_R_SQUARED 0.845, read-out: LUCIFERASE INFECTION ASSAY - IC50): 0.804 µM"
CCc1ccc(C2=NN=C(Nc3cccc(S(=O)(=O)N(C)C)c3)SC2)cc1,9.95,"IC50 (FFLUC_HILL_SLOPE 1.2, FFLUC_R_SQUARED 0.399, HEPG2TOX_HILL_SLOPE 10.6, HEPG2TOX_R_SQUARED 0.97, PBLUC_HILL_SLOPE 5.57, PBLUC_R_SQUARED 0.702, read-out: LUCIFERASE INFECTION ASSAY - IC50): 6.71 µM"
CC(C)N(C(=O)CN1CCN(c2ccccc2Cl)CC1)c1ccc(Nc2ccccc2)cc1,> 10,IC50 [1]: 4.84 µM

Structure (SMILES),IC90 [µM],further results
CCC1=C(C(=O)OC)C(c2c(F)cccc2F)NC(=S)N1c1ccc2c(c1)OCCO2 (stereo not drawn),> 10,"IC50 (PBLUC_HILL_SLOPE 2.5, PBLUC_R_SQUARED 0.683, read-out: LUCIFERASE INFECTION ASSAY - IC50): 6.87 µM"
CS(=O)(=O)c1ccc(-c2ccc3ncc(-c4cccc(C(F)(F)F)c4)n3n2)cc1,> 10,IC50 [1]: 2.78 µM
Nc1ncc(-c2cc(F)c(F)c(F)c2)cc1-c1cccc(O)c1,> 10.4,IC50 [1]: > 10.4 µM
Oc1cccc(-c2cnc3cnc(-c4ccc(Cl)cc4Cl)cn23)c1,2.14,"IC50 (HEPG2TOX_HILL_SLOPE 1.62, HEPG2TOX_R_SQUARED 0.949, PBLUC_HILL_SLOPE 1.81, PBLUC_R_SQUARED 0.693, read-out: LUCIFERASE INFECTION ASSAY - IC50): 0.634 µM"
Cc1ccc(NC(=O)Nc2cnn(-c3ccc([N+](=O)[O-])cc3)c2C(F)(F)F)cc1F,3.46,"IC50 (FFLUC_HILL_SLOPE 2.79, FFLUC_R_SQUARED 0.315, HEPG2TOX_HILL_SLOPE 0.0932, HEPG2TOX_R_SQUARED 0.068, PBLUC_HILL_SLOPE 11.4, PBLUC_R_SQUARED 0.0999, read-out: LUCIFERASE INFECTION ASSAY - IC50): 2.85 µM"
COc1cc2c(cc1OC)CN(C(=O)c1ccc(OCC(F)(F)F)nc1)CC2,7.21,"IC50 (HEPG2TOX_HILL_SLOPE 0.758, HEPG2TOX_R_SQUARED 0.894, PBLUC_HILL_SLOPE 2.65, PBLUC_R_SQUARED 0.321, read-out: LUCIFERASE INFECTION ASSAY - IC50): 3.14 µM"
CC(C)(C)c1cc2ncc(S(=O)(=O)c3ccc(Cl)cc3)c(N)n2n1,> 9.04,"IC50 (HEPG2TOX_HILL_SLOPE 5.77, HEPG2TOX_R_SQUARED 0.0253, read-out: LUCIFERASE INFECTION ASSAY - IC50): > 9.04 µM"
COc1cc(-c2cnc3cnc(-c4cccc(NS(C)(=O)=O)c4)cn23)cc(OC)c1OC,6.6,"IC50 (HEPG2TOX_HILL_SLOPE 7.03, HEPG2TOX_R_SQUARED 0.532, PBLUC_HILL_SLOPE 3.63, PBLUC_R_SQUARED 0.378, read-out: LUCIFERASE INFECTION ASSAY - IC50): 3.61 µM"
CC1CC(=O)C2C(=Nc3ccccc3SC2c2ccc(F)cc2)C1 (stereo not drawn),> 9.72,"IC50 (FFLUC_HILL_SLOPE 40.6, FFLUC_R_SQUARED 0.352, PBLUC_HILL_SLOPE 4.94, PBLUC_R_SQUARED 0.608, read-out: LUCIFERASE INFECTION ASSAY - IC50): 7.03 µM"
O=C(NN=CC1C(=O)N(c2ccccc2C(F)(F)F)C(=O)c2ccccc21)c1ccc(F)cc1 (stereo not drawn),> 10,"IC50 (HEPG2TOX_HILL_SLOPE 4.25, HEPG2TOX_R_SQUARED 0.761, PBLUC_HILL_SLOPE 4.13, PBLUC_R_SQUARED 0.557, read-out: LUCIFERASE INFECTION ASSAY - IC50): 5.89 µM"
O=C(c1ccc2nc[nH]c2c1)N1CCc2nc(NCc3cccc(Oc4ccccc4)c3)ncc2C1,> 6.92,"IC50 (HEPG2TOX_HILL_SLOPE 1.36, HEPG2TOX_R_SQUARED 0.938, PBLUC_HILL_SLOPE 1.78, PBLUC_R_SQUARED 0.322, read-out: LUCIFERASE INFECTION ASSAY - IC50): 2.4 µM"
CC(C)Nc1cc(C(=O)Nc2ccccc2)ncn1,> 12.9,"IC50 (FFLUC_HILL_SLOPE 1.2, FFLUC_R_SQUARED 0.891, PBLUC_HILL_SLOPE 0.483, PBLUC_R_SQUARED 0.815, read-out: LUCIFERASE INFECTION ASSAY - IC50): 0.196 µM"
O=C(Nc1ccc(OC(F)(F)F)cc1)Nc1cc(-c2ccccc2)n[nH]1,4.02,"IC50 (PBLUC_HILL_SLOPE 11.1, PBLUC_R_SQUARED 0.558, read-out: LUCIFERASE INFECTION ASSAY - IC50): 3.3 µM"
COc1ccc(-n2c(C)cc(/C=C(\C#N)C(=O)NCc3nnc4ccccn34)c2C)cc1,9.17,"IC50 (PBLUC_HILL_SLOPE 14.5, PBLUC_R_SQUARED 0.61, read-out: LUCIFERASE INFECTION ASSAY - IC50): 7.88 µM"
Cc1ccc(-c2nnc(SCC(=O)Nc3ccccc3C(=O)NCc3ccccc3)[nH]2)cc1,> 10,IC50 [1]: > 10 µM
CN(C)c1ccc(C2CNC(c3ccc(Cl)c([N+](=O)[O-])c3)c3[nH]c4ccccc4c32)cc1 (stereo not drawn),> 10,"IC50 (PBLUC_HILL_SLOPE 1.52, PBLUC_R_SQUARED 0.0896, read-out: LUCIFERASE INFECTION ASSAY - IC50): > 10 µM"
CC(=O)NCc1ccc(-c2csc(NC(=O)c3cc(-c4ccco4)nc4c3c(C)nn4C)n2)cc1,> 10,IC50 [1]: > 10 µM
